Consider 2 compounds from patent publication US20190015327A1, “COMPOSITIONS AND METHODS FOR TREATING CONDITIONS RELATED TO LACK OF BLOOD SUPPLY, SHOCK AND NEURONAL INJURIES” (VIVACELLE BIO, INC., priority 2015, published 2019).

Where “and” joins values, the source holds several entries; their conditions need not be identical. Equal values may be shown once.

Data set [1] is described as follows: Nitric oxide uptake / NO content by mass spectrometry. Particulars: 100 ppm nitric oxide in helium, 60 min equilibration.
Method: Some samples (1 ml each) were left open to air in 2.0 ml tubes for 30 minutes prior to dissolved gas analysis. In other experiments the emulsion was placed into a 15 ml tube. The headspace was filled with the gas under study and the gas was allowed to enter the emulsion by equilibration over 60 minutes with the tube on its side to increase the gas emulsion interaction. 50 μL drawn from each of these fluids were injected into a Sievers purge vessel at 37° C. containing 36 ml of a mildly acidic solution consisting of 32 ml of 1M HCL and 4 ml of 0.5M ascorbic acid. […] Signals generated at m/z=32 upon injection of RL and lipid emulsion samples were integrated using Peakfit and compared to those obtained with distilled water.
In another set of experiments we measured the uptake of nitric oxide by a commercially available 20% soybean oil emulsion, Liposyn III 20%. This emulsion contains 20% soybean oil, 1.2% egg phospholipids and 2.5% glycerin in water. Using NaOH pH was adjusted to 8.3. […] 100 ppm nitric oxide in helium was used to purge the hesdspace for two minutes taking care not to bubble the fluid. For sixty minutes the sample was allowed to reach gas-liquid equilibrium with the tube placed on its side to maximize gas-emulsion contact.
The uptake of NO and O2 by a commercial 20% soybean oil emulsion, Liposyn, was measured using mass spectrometry. […] To approximate field conditions, no warming or respiratory support was provided. Next, 55% of blood volume was removed within 2 minutes. […] The time of clinical death was defined as the cessation of respiration. […] In 5 mice a volume of Ringer's lactate equal to the volume of blood removed was administered via the internal jugular vein over 2 minutes immediately after the loss of chest wall movement. […] In 6 mice a volume of Ringer's lactate equal to the volume of blood removed was administered via the carotid artery over 2 minutes. […] In the next set of experiments, infusing Ringers' lactate was delayed for 3 minutes. […] A volume of emulsion equal to the volume of blood that had been removed was infused.
For data set [2] the following is noted: 1 atm; from The Engineering Toolbox; cited from earlier work.
For data set [3] the following is noted: published value; cited from earlier work.

As to `O` [Water], in data set [1], the “NO Content, Mean” value turned out to be 1.77 mol/L; the “NO Content, single samples” value was 2.29 mol/L and 1.52 mol/L and 1.63 mol/L and 1.72 mol/L and 1.69 mol/L. Moreover, the “Oxygen Content at 25° C. and Sea level Pressure” value in data set [2] is 8.3 mg/L.

hemoglobin: in data set [3], the oxygen release time was 17.5 ms.
